Measurements from ChEMBL document CHEMBL1914447, “Novel orally active antimalarial thiazoles” (J Med Chem, 2011).
Values after ≈ are worked out from the molar mass of the structure shown.

Legend:
[1] = Equilibrium solubility of the compound by nephelometry at pH 2.0; format: physicochemical; conditions: buffer
[2] = Volume of distribution at steady state in Sprague-Dawley rat at 4.5 mg/kg, iv; format: ADME, organism-based; design: dose 4.5 mg/kg, route intravenous; conditions: in vivo, read-out: Vdss
[3] = test system: Liver microsomes; experiment: Metabolic stability in human liver microsomes at 1 uM by LC-MS analysis; format: ADME, Microsome
[4] = test system: Plasmodium berghei; experiment: Antimalarial activity against GFP-transfected Plasmodium berghei ANKA infected in NMRI mouse assessed as mean survival time at 100 mg/kg, po administered as single dose; format: functional
[5] = test system: Plasmodium berghei; experiment: Antimalarial activity against GFP-transfected Plasmodium berghei ANKA infected in NMRI mouse assessed as mean survival time at 10 mg/kg, po administered as single dose; format: functional
[6] = Apparent half life in Sprague-Dawley rat at 21.8 […], po; format: ADME, organism-based; conditions: in vivo, read-out: t1/2(app) (converted)
[7] = test system: Plasmodium berghei; experiment: Antimalarial activity against GFP-transfected Plasmodium berghei ANKA infected in NMRI mouse assessed as mean survival time at 50 mg/kg, po administered as quadruple dose regimen; format: functional
[8] = target: T1, CYP3A4/5 (Homo sapiens, UniProt P08684+P20815); experiment: Inhibition of CYP3A4/5-mediated midazolam 1'-hydroxylation in human liver microsomes by LCMS analysis; format: ADME, Microsome; conditions: probe midazolam (1'-hydroxylation)
[9] = Oral bioavailability in Sprague-Dawley rat at 21.8 mg/kg; format: ADME, organism-based; conditions: in vivo
[10] = test system: L6; experiment: Cytotoxicity against rat L6 cells assessed after 72 hrs by alamar blue staining; format: cell-based; conditions: L6, 72 h
[11] = Cmax in Sprague-Dawley rat plasma at 21.8 mg/kg, po by LCMS analysis; format: ADME, organism-based; design: dose 21.8 mg/kg, route oral
[12] = test system: Plasmodium berghei; experiment: Antimalarial activity against GFP-transfected Plasmodium berghei ANKA infected in NMRI mouse assessed as reduction in parasitemia at 30 mg/kg, po administered as single dose after 72 hrs by flow cytometry; format: functional; design: scale not given: the % may be the effect or the level left
[13] = test system: Plasmodium berghei; experiment: Antimalarial activity against GFP-transfected Plasmodium berghei ANKA infected in NMRI mouse assessed as reduction in parasitemia at 100 mg/kg, po administered as single dose after 72 hrs by flow cytometry; format: functional; design: scale not given: the % may be the effect or the level left
[14] = Plasma protein binding in human at 200 ng/mL; format: ADME, cell-free; conditions: read-out: PPB (converted)
[15] = Lipophilicity, log D of the compound by gradient HPLC at pH 3.0; format: physicochemical; conditions: buffer
[16] = test system: Plasmodium falciparum; experiment: microbe, parasite or virus in culture; conditions: K1
[17] = AUC (0 to infinity) in Sprague-Dawley rat plasma at 4.5 mg/kg, iv by LCMS analysis; format: ADME, organism-based; design: time infinity, dose 4.5 mg/kg, route intravenous
[18] = Total clearance in Sprague-Dawley rat plasma at 4.5 mg/kg, iv; format: ADME, organism-based; design: dose 4.5 mg/kg, route intravenous
[19] = target: Voltage-gated inwardly rectifying potassium channel KCNH2 (Homo sapiens, UniProt Q12809); experiment: Inhibition of human ERG expressed in Chinese hamster CHL cells by perforated patch clamp assay; format: cell-based
[20] = Ratio of drug level in blood to plasma of Sprague-Dawley rat at 4.5 mg/kg, iv; format: ADME, organism-based; design: dose 4.5 mg/kg, route intravenous; conditions: whole blood and plasma
[21] = Total clearance in Sprague-Dawley rat blood at 4.5 mg/kg, iv; format: ADME, organism-based; design: dose 4.5 mg/kg, route intravenous; conditions: whole blood
[22] = test system: Plasmodium berghei; experiment: Antimalarial activity against GFP-transfected Plasmodium berghei ANKA infected in NMRI mouse assessed as mean survival time at 200 mg/kg, po administered as single dose after 72 hrs; format: functional
[23] = test system: Plasmodium berghei; experiment: Antimalarial activity against GFP-transfected Plasmodium berghei ANKA infected in NMRI mouse assessed as mean survival time at 30 mg/kg, po administered as single dose; format: functional
[24] = Apparent half life in Sprague-Dawley rat at 4.5 […], iv; format: ADME, organism-based; conditions: in vivo, read-out: t1/2(app) (converted)
[25] = target: Cytochrome P450 2C19 (Homo sapiens, UniProt P33261); experiment: Inhibition of CYP2C19-mediated (S)-mephenytoin 4'-hydroxylation in human liver microsomes by LCMS analysis; format: ADME, Microsome
[26] = test system: Plasmodium berghei; experiment: Antimalarial activity against GFP-transfected Plasmodium berghei ANKA infected in NMRI mouse assessed as reduction in parasitemia at 200 mg/kg, po administered as single dose after 72 hrs by flow cytometry; format: functional; design: scale not given: the % may be the effect or the level left
[27] = Equilibrium solubility of the compound by nephelometry at pH 6.5; format: physicochemical; conditions: buffer
[28] = test system: Liver; experiment: Metabolic stability in mouse liver microsomes at 1 uM by LC-MS analysis; format: ADME, Microsome
[29] = target: Cytochrome P450 2D6 (Homo sapiens, UniProt P10635); experiment: Inhibition of CYP2D6-mediated dextromethorphan O-demethylation in human liver microsomes by LCMS analysis; format: ADME, Microsome
[30] = Tmax in Sprague-Dawley rat at 21.8 mg/kg, po by LCMS analysis; format: ADME, organism-based; design: dose 21.8 mg/kg, route oral; conditions: in vivo
[31] = target: T1, CYP3A4/5; experiment: Inhibition of CYP3A4/5-mediated testosterone 6beta-hydroxylation in human liver microsomes by LCMS analysis; format: ADME, Microsome; conditions: probe testosterone (6beta-hydroxylation)
[32] = test system: Liver microsomes; experiment: Metabolic stability in rat liver microsomes at 1 uM by LC-MS analysis; format: ADME, Microsome
[33] = test system: Plasmodium berghei; experiment: Antimalarial activity against GFP-transfected Plasmodium berghei ANKA infected in NMRI mouse assessed as reduction in parasitemia at 10 mg/kg, po administered as single dose after 72 hrs by flow cytometry; format: functional; design: scale not given: the % may be the effect or the level left
[34] = Plasma protein binding in rat at 200 ng/mL; format: ADME, cell-free; conditions: read-out: PPB (converted)
[35] = test system: Plasmodium berghei; experiment: Antimalarial activity against GFP-transfected Plasmodium berghei ANKA infected in NMRI mouse assessed as reduction in parasitemia at 50 mg/kg, po administered as quadruple dose regimen after 4 days by flow cytometry; format: functional; design: scale not given: the % may be the effect or the level left
[36] = target: Cytochrome P450 2C9 (Homo sapiens, UniProt P11712); experiment: Inhibition of CYP2C9-mediated Tolbutamide methlyhydroxylation in human liver microsomes by LCMS analysis; format: ADME, Microsome
[37] = test system: Plasmodium falciparum; experiment: microbe, parasite or virus in culture; conditions: NF54
[38] = test system: Plasmodium berghei; experiment: Antimalarial activity against GFP-transfected Plasmodium berghei ANKA infected in po dosed NMRI mouse assessed as reduction in parasitemia administered as single dose after 72 hrs by flow cytometry; format: functional
[39] = target: T2, Cytochrome P450 1A2 (Homo sapiens, UniProt P05177); experiment: Inhibition of CYP1A2-mediated phencetin o-de-ethylation in human liver microsomes by LCMS analysis; format: ADME, Microsome
T2 sequence (P05177 whole entry): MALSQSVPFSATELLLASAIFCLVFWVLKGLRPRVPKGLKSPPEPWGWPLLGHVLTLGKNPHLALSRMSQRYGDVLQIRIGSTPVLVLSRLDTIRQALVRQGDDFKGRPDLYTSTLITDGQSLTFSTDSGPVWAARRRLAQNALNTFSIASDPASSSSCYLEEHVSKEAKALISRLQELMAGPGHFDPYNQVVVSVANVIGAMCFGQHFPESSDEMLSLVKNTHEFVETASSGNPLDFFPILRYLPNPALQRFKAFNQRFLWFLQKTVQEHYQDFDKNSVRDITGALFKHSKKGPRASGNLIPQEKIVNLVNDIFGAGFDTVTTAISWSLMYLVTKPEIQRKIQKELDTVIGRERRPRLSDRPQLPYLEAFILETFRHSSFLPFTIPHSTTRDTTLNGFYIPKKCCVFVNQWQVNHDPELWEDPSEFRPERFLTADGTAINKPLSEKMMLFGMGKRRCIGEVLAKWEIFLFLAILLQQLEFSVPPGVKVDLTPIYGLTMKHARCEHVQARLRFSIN

[40] = Lipophilicity, log D of the compound by gradient HPLC at pH 7.4; format: physicochemical; conditions: buffer
[41] = Plasma protein binding in mouse at 200 ng/mL; format: ADME, cell-free; conditions: read-out: PPB (converted)
[42] = AUC (0 to infinity) in Sprague-Dawley rat plasma at 21.8 mg/kg, po by LCMS analysis; format: ADME, organism-based; design: time infinity, dose 21.8 mg/kg, route oral

Chain of Cytochrome P450 2C19 (P33261 whole entry): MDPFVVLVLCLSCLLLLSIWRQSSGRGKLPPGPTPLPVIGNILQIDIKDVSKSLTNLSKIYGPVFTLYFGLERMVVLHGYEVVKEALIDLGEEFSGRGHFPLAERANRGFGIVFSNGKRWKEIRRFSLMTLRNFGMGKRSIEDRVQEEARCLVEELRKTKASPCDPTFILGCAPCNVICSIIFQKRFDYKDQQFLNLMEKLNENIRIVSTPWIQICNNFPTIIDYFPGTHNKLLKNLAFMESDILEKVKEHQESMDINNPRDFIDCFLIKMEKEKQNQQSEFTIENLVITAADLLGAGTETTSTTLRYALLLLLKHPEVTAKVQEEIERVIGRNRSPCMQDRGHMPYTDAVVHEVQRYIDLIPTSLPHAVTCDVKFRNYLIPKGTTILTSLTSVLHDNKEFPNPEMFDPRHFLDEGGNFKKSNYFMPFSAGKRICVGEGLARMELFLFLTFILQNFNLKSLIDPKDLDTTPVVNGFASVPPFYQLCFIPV
Chain of Cytochrome P450 2D6 (P10635 whole entry): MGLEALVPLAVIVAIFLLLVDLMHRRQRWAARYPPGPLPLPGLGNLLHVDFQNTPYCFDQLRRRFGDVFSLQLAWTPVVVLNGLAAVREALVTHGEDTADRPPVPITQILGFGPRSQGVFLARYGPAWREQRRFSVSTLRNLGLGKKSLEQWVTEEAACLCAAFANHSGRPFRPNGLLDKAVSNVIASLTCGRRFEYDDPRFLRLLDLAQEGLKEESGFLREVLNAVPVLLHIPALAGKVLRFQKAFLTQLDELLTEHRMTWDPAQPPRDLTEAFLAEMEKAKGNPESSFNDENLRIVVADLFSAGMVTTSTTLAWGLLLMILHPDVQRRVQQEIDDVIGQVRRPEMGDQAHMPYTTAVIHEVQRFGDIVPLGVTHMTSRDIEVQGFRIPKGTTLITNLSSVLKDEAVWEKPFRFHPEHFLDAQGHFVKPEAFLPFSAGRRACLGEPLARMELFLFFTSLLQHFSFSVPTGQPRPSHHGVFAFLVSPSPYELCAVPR
Chain of Cytochrome P450 2C9 (P11712 whole entry): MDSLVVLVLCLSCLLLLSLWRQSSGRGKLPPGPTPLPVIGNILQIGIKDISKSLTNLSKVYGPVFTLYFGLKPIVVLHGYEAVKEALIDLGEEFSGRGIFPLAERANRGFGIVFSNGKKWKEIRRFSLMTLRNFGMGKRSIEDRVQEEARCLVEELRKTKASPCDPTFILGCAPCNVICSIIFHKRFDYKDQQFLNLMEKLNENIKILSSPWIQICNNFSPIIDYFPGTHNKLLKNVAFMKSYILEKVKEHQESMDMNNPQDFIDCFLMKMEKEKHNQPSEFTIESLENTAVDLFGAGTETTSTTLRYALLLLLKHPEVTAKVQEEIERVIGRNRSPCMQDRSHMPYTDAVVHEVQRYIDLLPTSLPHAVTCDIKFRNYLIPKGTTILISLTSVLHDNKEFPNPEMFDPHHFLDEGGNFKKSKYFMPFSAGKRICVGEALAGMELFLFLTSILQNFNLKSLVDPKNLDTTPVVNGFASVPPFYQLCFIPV
Chain of Voltage-gated inwardly rectifying potassium channel KCNH2 (Q12809 whole entry): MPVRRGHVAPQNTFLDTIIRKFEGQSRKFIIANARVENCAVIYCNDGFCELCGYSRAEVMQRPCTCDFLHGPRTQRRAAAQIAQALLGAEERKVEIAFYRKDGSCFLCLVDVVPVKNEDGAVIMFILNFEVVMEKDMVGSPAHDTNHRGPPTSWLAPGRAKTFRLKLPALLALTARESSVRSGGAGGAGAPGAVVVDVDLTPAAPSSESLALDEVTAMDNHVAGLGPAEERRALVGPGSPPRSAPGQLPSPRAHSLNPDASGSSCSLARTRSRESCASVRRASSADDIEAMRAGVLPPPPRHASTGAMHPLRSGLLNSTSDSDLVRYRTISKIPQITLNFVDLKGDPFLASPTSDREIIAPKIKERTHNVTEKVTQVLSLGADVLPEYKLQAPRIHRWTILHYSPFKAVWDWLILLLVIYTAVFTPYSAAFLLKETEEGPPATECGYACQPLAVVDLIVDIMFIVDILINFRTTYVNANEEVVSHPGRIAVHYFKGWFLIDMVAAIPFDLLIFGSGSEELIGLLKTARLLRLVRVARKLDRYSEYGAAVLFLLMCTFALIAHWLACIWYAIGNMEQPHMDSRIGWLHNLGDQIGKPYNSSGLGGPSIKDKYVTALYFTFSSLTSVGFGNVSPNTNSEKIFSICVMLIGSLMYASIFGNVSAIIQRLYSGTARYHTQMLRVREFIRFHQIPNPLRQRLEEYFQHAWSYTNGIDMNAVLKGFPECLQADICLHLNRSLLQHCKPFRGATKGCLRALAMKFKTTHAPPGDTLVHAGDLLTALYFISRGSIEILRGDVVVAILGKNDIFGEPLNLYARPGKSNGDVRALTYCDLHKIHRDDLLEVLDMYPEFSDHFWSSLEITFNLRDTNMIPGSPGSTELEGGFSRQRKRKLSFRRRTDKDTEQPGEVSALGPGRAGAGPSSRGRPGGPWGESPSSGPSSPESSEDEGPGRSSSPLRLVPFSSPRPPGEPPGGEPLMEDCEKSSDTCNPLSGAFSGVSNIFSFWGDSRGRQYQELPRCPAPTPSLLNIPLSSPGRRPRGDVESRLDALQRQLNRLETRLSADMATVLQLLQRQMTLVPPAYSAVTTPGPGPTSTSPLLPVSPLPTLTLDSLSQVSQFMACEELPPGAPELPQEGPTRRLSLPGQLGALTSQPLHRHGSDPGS

**Q.** What does the source list for `CC(C)(C)c1cc(C(=O)Nc2nc(CN)cs2)n(Cc2ccccc2)n1`?
**A.** solubility [1]: 4930 µg/mL (≈ 13.3 mM); Vd [2]: 10.1 L/kg; Stability [3]: Stable; MSD [4]: 6 days; MSD [5]: 3 days; half-life [6]: 3.1 h; MSD [7]: 9 days; IC50 [8]: > 30 µM; bioavailability [9]: 50.4%; IC50 [10]: 4.9 µM; Cmax [11]: 1600 nM; Activity [12]: <40%; Activity [13]: 94%; fraction unbound at 200 ng/mL [14]: 0.06; chromatographic logD [15]: 2.4; IC50 [16]: 0.08 µM; AUC(0-inf) [17]: 4.82 µM·h; clearance [18]: 42.6 mL/min/kg; IC50 [19]: 3.7 µM; blood plasma ratio [20]: 1.1; clearance [21]: 39.1 mL/min/kg; MSD [22]: 8 days; MSD [23]: 6 days; half-life [24]: 3.7 h; IC50 [25]: 15 µM; Activity [26]: 99.4%; solubility [27]: 142 µg/mL (≈ 0.385 mM); Stability [28]: Stable; IC50 [29]: 0.4 µM; Tmax [30]: 3.25 h; IC50 [31]: > 30 µM; Stability [32]: Stable; Activity [33]: <40%; fraction unbound at 200 ng/mL [34]: 0.029; Activity [35]: 99.5%; IC50 [36]: 10 µM; IC50 [37]: 0.07 µM; ED50 [38]: 37 mg/kg; ED90 [38]: 86 mg/kg; IC50 [39]: 1.5 µM; chromatographic logD [40]: 3.5; fraction unbound at 200 ng/mL [41]: 0.021; AUC(0-inf) [42]: 11.8 µM·h
